The experiment addresses recombinant human His-ATG7 enzyme (Homo sapiens (Human), UniProt O95352). Nature of the experiment: ATG7 Enzyme Assay (HTRF/FRET, ATG3-GST and Flag-Gabarap). It counts as biochemical. To be noted: for inhibition at 0.111 µM: Concentration 0.111 μM. In short, it runs like this: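 HTRF read-out after 2 h at 24° C, using Eu-cryptate anti-Flag and XL-APC anti-GST antibodies in an EDTA stop buffer. The preceding 105 min, 24° C reaction (pH 7.5) held 10 μM ATP, 5 nM each ATG3-GST and Flag-Gabarap, and 0.15 nM human His-ATG7. Values are IC50 or percent inhibition at one concentration.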

pIC50: −log10 of the molar value.

What is called pIC50 is −log10 of the IC50, conventionally taken in molar units. Usually inhibition stands for how much of the control response was suppressed.

recombinant human His-ATG7 enzyme, sequence (O95352 whole entry): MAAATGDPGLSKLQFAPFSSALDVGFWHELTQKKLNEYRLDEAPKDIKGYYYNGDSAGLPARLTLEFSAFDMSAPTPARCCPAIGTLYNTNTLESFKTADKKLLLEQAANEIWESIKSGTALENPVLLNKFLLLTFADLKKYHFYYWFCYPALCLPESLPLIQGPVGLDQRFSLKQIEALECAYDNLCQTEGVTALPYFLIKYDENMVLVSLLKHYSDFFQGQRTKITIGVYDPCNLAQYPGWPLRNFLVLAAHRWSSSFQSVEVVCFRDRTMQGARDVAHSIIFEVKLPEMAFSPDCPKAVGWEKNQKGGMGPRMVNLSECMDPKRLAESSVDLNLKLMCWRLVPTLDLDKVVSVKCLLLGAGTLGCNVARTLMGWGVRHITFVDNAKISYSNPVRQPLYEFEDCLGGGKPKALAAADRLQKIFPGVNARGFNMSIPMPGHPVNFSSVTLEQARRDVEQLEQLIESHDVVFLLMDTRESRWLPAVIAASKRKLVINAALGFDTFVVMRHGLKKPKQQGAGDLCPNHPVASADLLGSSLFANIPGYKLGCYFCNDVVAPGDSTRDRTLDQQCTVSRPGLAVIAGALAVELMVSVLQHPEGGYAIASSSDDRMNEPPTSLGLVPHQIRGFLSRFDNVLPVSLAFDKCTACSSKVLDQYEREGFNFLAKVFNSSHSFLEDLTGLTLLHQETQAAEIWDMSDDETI

Consider `Cn1cc(CSc2nn([C@@H]3O[C@H](COS(N)(=O)=O)[C@@H](O)[C@@H]3F)c3ncnc(N)c23)cn1` [Compound I-145, [(2R,3R,4S,5R)-5-(4-amino-3-{[(1-methyl-1H-pyrazol-4-yl)methyl]sulfanyl}-1H-pyrazolo[3,4-d]pyrimidin-1-yl)-4-fluoro-3-hydroxytetrahydrofuran-2-yl]methyl sulfamate], for which the pIC50 was 7.30 to 7.70. The inhibition at 0.111 µM (read-out: Percent Inhibition) is 74%.
The matching figures for `Nc1ncnc2c1c(Sc1ccc(Cl)cn1)nn2[C@@H]1O[C@H](COS(N)(=O)=O)[C@@H](O)[C@@H]1F` [Compound I-146, [(2R,3R,4S,5R)-5-{4-amino-3-[(5-chloropyridin-2-yl)sulfanyl]-1H-pyrazolo[3,4-d]pyrimidin-1-yl}-4-fluoro-3-hydroxytetrahydrofuran-2-yl]methyl sulfamate]: 7.30 to 7.70 and 86%.
For `Nc1ncnc2c1c(SC1CCC1)nn2[C@@H]1O[C@H](COS(N)(=O)=O)[C@@H](O)[C@@H]1F` [Compound I-147, {(2R,3R,4S,5R)-5-[4-amino-3-(cyclobutylsulfanyl)-1H-pyrazolo[3,4-d]pyrimidin-1-yl]-4-fluoro-3-hydroxytetrahydrofuran-2-yl}methyl sulfamate], in that order: greater than 7.70 and 89%.
The matching figures for `Nc1ncnc2c1c(SCC1CCC1)nn2[C@@H]1O[C@H](COS(N)(=O)=O)[C@@H](O)[C@@H]1F` [Compound I-148, [(2R,3R,4S,5R)-5-{4-amino-3-[(cyclobutylmethyl)sulfanyl]-1H-pyrazolo[3,4-d]pyrimidin-1-yl}-4-fluoro-3-hydroxytetrahydrofuran-2-yl]methyl sulfamate]: greater than 7.70 and 83%.
`Nc1ncnc2c1c(Sc1ccncc1)nn2[C@@H]1O[C@H](COS(N)(=O)=O)[C@@H](O)[C@@H]1F` [Compound I-150, {(2R,3R,4S,5R)-5-[4-amino-3-(pyridin-4-ylsulfanyl)-1H-pyrazolo[3,4-d]pyrimidin-1-yl]-4-fluoro-3-hydroxytetrahydrofuran-2-yl}methyl Sulfamate]: the pIC50 is 6.30 to 7.00. Further, the inhibition at 0.111 µM (read-out: Percent Inhibition) was 46%.
Consider `Nc1ncnc2c1c(SCCO)nn2[C@@H]1O[C@H](COS(N)(=O)=O)[C@@H](O)[C@@H]1F` [Compound I-151, [(2R,3R,4S,5R)-5-{4-amino-3-[(2-hydroxyethyl)sulfanyl]-1H-pyrazolo[3,4-d]pyrimidin-1-yl}-4-fluoro-3-hydroxytetrahydrofuran-2-yl]methyl Sulfamate], for which, where the note is “read-out: Percent Inhibition”, the inhibition at 0.111 µM is 76%.
On to `Cc1ccc(Sc2nn([C@@H]3O[C@H](COS(N)(=O)=O)[C@@H](O)[C@@H]3F)c3ncnc(N)c23)nc1` [Compound I-152, [(2R,3R,4S,5R)-5-{4-amino-3-[(5-methylpyridin-2-yl)sulfanyl]-1H-pyrazolo[3,4-d]pyrimidin-1-yl}-4-fluoro-3-hydroxytetrahydrofuran-2-yl]methyl sulfamate], for which the pIC50 is greater than 7.70. Moreover, the inhibition at 0.111 µM (read-out: Percent Inhibition) is 88%.
For `N#Cc1cccc(Sc2nn([C@@H]3O[C@H](COS(N)(=O)=O)[C@@H](O)[C@@H]3F)c3ncnc(N)c23)c1` [Compound I-153, [(2R,3R,4S,5R)-5-{4-amino-3-[(3-cyanophenyl)sulfanyl]-1H-pyrazolo[3,4-d]pyrimidin-1-yl}-4-fluoro-3-hydroxytetrahydrofuran-2-yl]methyl sulfamate], in that order: 7.00 to 7.30 and 58%.
For the compound `COCCSc1nn([C@@H]2O[C@H](COS(N)(=O)=O)[C@@H](O)[C@@H]2F)c2ncnc(N)c12` [Compound I-154, [(2R,3R,4S,5R)-5-{4-amino-3-[(2-methoxyethyl)sulfanyl]-1H-pyrazolo[3,4-d]pyrimidin-1-yl}-4-fluoro-3-hydroxytetrahydrofuran-2-yl]methyl sulfamate], the pIC50 is 7.00 to 7.30. The inhibition at 0.111 µM (read-out: Percent Inhibition) is 64%.
As for `Nc1ncnc2c1c(SCc1ccccc1)nn2[C@@H]1O[C@H](COS(N)(=O)=O)[C@@H](O)[C@@H]1F` [Compound I-155, {(2R,3R,4S,5R)-5-[4-amino-3-(benzylsulfanyl)-1H-pyrazolo[3,4-d]pyrimidin-1-yl]-4-fluoro-3-hydroxytetrahydrofuran-2-yl}methyl sulfamate], the negative-log IC50 (pIC50) was 7.30 to 7.70. Also, the inhibition at 0.123 µM (Concentration 0.123 μM, read-out: Percent Inhibition) was 75%.
`Nc1ncnc2c1c(Sc1nnc3ccccn13)nn2[C@@H]1O[C@H](COS(N)(=O)=O)[C@@H](O)[C@@H]1F` [Compound I-156, {(2R,3R,4S,5R)-5-[4-amino-3-([1,2,4]triazolo[4,3-a]pyridin-3-ylsulfanyl)-1H-pyrazolo[3,4-d]pyrimidin-1-yl]-4-fluoro-3-hydroxytetrahydrofuran-2-yl}methyl sulfamate]: the negative-log IC50 (pIC50) is 6.30 to 7.00. In addition, the inhibition at 0.111 µM (read-out: Percent Inhibition) is 30%.
For `Nc1ncnc2c1c(Sc1cccc(C(F)(F)F)c1)nn2[C@@H]1O[C@H](COS(N)(=O)=O)[C@@H](O)[C@@H]1F` [Compound I-158, [(2R,3R,4S,5R)-5-(4-amino-3-{[3-(trifluoromethyl)phenyl]sulfanyl}-1H-pyrazolo[3,4-d]pyrimidin-1-yl)-4-fluoro-3-hydroxytetrahydrofuran-2-yl]methyl sulfamate], in that order: 7.00 to 7.30 and 56%.
The matching figures for `NC(=O)CSc1nn([C@H]2C[C@H](O)[C@@H](COS(N)(=O)=O)O2)c2ncnc(N)c12` [Compound I-159, [(2R,3S,5R)-5-{4-amino-3-[(2-amino-2-oxoethyl)sulfanyl]-1H-pyrazolo[3,4-d]pyrimidin-1-yl}-3-hydroxytetrahydrofuran-2-yl]methyl sulfamate]: 6.30 to 7.00 and 29%.
The matching figures for `Nc1ncnc2c1c(Sc1ccc3c(c1)CCC3)nn2[C@H]1C[C@H](O)[C@@H](COS(N)(=O)=O)O1` [Compound I-160, {(2R,3S,5R)-5-[4-amino-3-(2,3-dihydro-1H-inden-5-ylsulfanyl)-1H-pyrazolo[3,4-d]pyrimidin-1-yl]-3-hydroxytetrahydrofuran-2-yl}methyl Sulfamate]: 7.00 to 7.30 and 62%.
`Cc1ccc(Sc2nn([C@H]3C[C@H](O)[C@@H](COS(N)(=O)=O)O3)c3ncnc(N)c23)c(F)c1` [Compound I-161, [(2R,3S,5R)-5-{4-amino-3-[(2-fluoro-4-methylphenyl)sulfanyl]-1H-pyrazolo[3,4-d]pyrimidin-1-yl}-3-hydroxytetrahydrofuran-2-yl]methyl Sulfamate]: the pIC50 was 7.00 to 7.30. Moreover, for the setting “read-out: Percent Inhibition”, the inhibition at 0.111 µM was 59%.
For `Nc1ncnc2c1c(SCCO)nn2[C@H]1C[C@H](O)[C@@H](COS(N)(=O)=O)O1` [Compound I-162, [(2R,3S,5R)-5-{4-amino-3-[(2-hydroxyethyl)sulfanyl]-1H-pyrazolo[3,4-d]pyrimidin-1-yl}-3-hydroxytetrahydrofuran-2-yl]methyl Sulfamate], in that order: 6.30 to 7.00 and 50%.
The matching figures for `CC(C)(C)c1ccc(Sc2nn([C@H]3C[C@H](O)[C@@H](COS(N)(=O)=O)O3)c3ncnc(N)c23)cc1` [Compound I-163, [(2R,3S,5R)-5-{4-amino-3-[(4-tert-butylphenyl)sulfanyl]-1H-pyrazolo[3,4-d]pyrimidin-1-yl}-3-hydroxytetrahydrofuran-2-yl]methyl sulfamate]: 7.00 to 7.30 and 58%.
The matching figures for `Nc1ncnc2c1c(SC1CCC1)nn2[C@H]1C[C@H](O)[C@@H](COS(N)(=O)=O)O1` [Compound I-164, {(2R,3S,5R)-5-[4-amino-3-(cyclobutylsulfanyl)-1H-pyrazolo[3,4-d]pyrimidin-1-yl]-3-hydroxytetrahydrofuran-2-yl}methyl sulfamate]: 7.00 to 7.30 and 70%.
In the case of `Nc1ncnc2c1c(SCC(F)F)nn2[C@H]1C[C@H](O)[C@@H](COS(N)(=O)=O)O1` [Compound I-165, [(2R,3S,5R)-5-{4-amino-3-[(2,2-difluoroethyl)sulfanyl]-1H-pyrazolo[3,4-d]pyrimidin-1-yl}-3-hydroxytetrahydrofuran-2-yl]methyl sulfamate], the negative logarithm of the IC50 (pIC50) is 7.00 to 7.30. Also, the inhibition at 0.111 µM (read-out: Percent Inhibition) was 62%.
The matching figures for `Nc1ncnc2c1c(Sc1ccc3ccccc3c1)nn2[C@H]1C[C@H](O)[C@@H](COS(N)(=O)=O)O1` [Compound I-166, {(2R,3S,5R)-5-[4-amino-3-(2-naphthylsulfanyl)-1H-pyrazolo[3,4-d]pyrimidin-1-yl]-3-hydroxytetrahydrofuran-2-yl}methyl sulfamate]: 6.30 to 7.00 and 50%.
On to `Nc1ncnc2c1c(SC1CC1)nn2[C@H]1C[C@H](O)[C@@H](COS(N)(=O)=O)O1` [Compound I-167, {(2R,3S,5R)-5-[4-amino-3-(cyclopropylsulfanyl)-1H-pyrazolo[3,4-d]pyrimidin-1-yl]-3-hydroxytetrahydrofuran-2-yl}methyl sulfamate], for which the pIC50 was 7.00 to 7.30. Besides, under “read-out: Percent Inhibition”, the inhibition at 0.111 µM came out at 68%.
The matching figures for `Nc1ncnc2c1c(Sc1ccc3c(c1)OCC3)nn2[C@H]1C[C@H](O)[C@@H](COS(N)(=O)=O)O1` [Compound I-168, {(2R,3S,5R)-5-[4-amino-3-(2,3-dihydro-1-benzofuran-6-ylsulfanyl)-1H-pyrazolo[3,4-d]pyrimidin-1-yl]-3-hydroxytetrahydrofuran-2-yl}methyl sulfamate]: 7.30 to 7.70 and 77%.
For `Nc1ncnc2c1c(SC(F)F)nn2[C@H]1C[C@H](O)[C@@H](COS(N)(=O)=O)O1` [Compound I-169, [(2R,3S,5R)-5-{4-amino-3-[(difluoromethyl)sulfanyl]-1H-pyrazolo[3,4-d]pyrimidin-1-yl}-3-hydroxytetrahydrofuran-2-yl]methyl sulfamate], the pIC50 was 7.00 to 7.30. Also, the inhibition at 0.111 µM (read-out: Percent Inhibition) was found to be 57%.

The values are drawn from patent US10865208B2, “ATG7 inhibitors and the uses thereof” (Millennium Pharmaceuticals, Inc., priority 2016, dated 2020).
